This passage reports concentration, Dmax and DC50 results from patent US20250002489A1, “BIFUNCTIONAL COMPOUNDS FOR DEGRADING ITK VIA UBIQUITIN PROTEOSOME PATHWAY” (NURIX THERAPEUTICS, INC., priority 2021, published 2025).

Series [1] is described as follows: Mouse PK analysis, plasma concentration by LC/MS/MS after oral administration. Type of series: in vivo. The note with it: mice. The procedure:
Mouse PK Analysis Compounds 17 and 18 were administered to mice orally. After six hours or twenty-four hours, splenocyte cells were harvested. ITK was evaluated by Western blotting. Plasma concentrations were determined by LC/MS/MS. Plasma samples were protein precipitated by addition of 100 μl of acetonitrile containing 50 ng/ml of internal standard. The resulting mixture was vortexed and centrifuged at 4000 rpm for five minutes. An aliquot of the resultant supernatant (75 μl) was added to 75 μl of 0.1% formic acid in water to constitute the final sample for injection. Samples were injected on a Shimadzu Exion LC Binary Gradient AD Pump HLPC system connected to a Sciex QTRAP 6500+ mass spectrometer. 5 μL of sample was injected onto a Waters Acquity UPLC BEH C18 column 130A (2.1×30 mm, […]) at 40° C. utilizing a flow rate of 700 μL/minute.
Mobile Phase A was 0.1% formic acid in water and mobile phase B was 0.1% formic acid in acetonitrile. A linear gradient of 15-95% B over 1.0 minute was used. The mass spectrometer was operated in positive ion electrospray mode with multiple reaction monitoring for maximum sensitivity. Sciex Analyst software (version 1.6.3) was used for LC/MS/MS instrument control and acquisition. Compound concentration was determined against a standard curve of internal standard versus compound peak area ratio. Noncompartmental PK parameters were determined using Phoenix 32 software (version 8.2.0.4383) from Certara. Plasma concentrations from the LC/MS/MS analyses, dose, route of administration, and desired units were utilized for PK parameter calculations.

The target in series [2] is T1, ITK (Jurkat or Molt4 cells) (Homo sapiens, UniProt Q08881).
T1 construct: either human Jurkat (Clone E6-1 ATCC TIB-152) or Motl4 (ATCC CRL-1552), were plated; endogenous in cells; host or cells: Jurkat Clone E6-1 (ATCC TIB-152) or Molt4 (ATCC CRL-1552)
T1 sequence (Q08881 1-620): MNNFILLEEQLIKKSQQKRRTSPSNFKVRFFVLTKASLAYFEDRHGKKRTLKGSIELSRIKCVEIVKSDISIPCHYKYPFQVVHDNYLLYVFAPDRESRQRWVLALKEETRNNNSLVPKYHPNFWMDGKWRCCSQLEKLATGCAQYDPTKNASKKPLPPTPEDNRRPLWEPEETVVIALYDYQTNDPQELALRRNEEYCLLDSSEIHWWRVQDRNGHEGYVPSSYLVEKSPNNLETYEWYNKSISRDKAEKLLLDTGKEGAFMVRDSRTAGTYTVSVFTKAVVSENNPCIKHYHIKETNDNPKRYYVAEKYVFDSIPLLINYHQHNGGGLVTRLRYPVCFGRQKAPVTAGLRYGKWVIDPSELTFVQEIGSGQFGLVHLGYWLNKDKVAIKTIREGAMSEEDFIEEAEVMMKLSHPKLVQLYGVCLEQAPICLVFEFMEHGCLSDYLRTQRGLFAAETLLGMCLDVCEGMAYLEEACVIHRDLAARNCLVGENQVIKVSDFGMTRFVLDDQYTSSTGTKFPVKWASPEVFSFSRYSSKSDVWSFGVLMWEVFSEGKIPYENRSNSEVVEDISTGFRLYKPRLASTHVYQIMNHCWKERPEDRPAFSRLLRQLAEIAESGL
The series is described as follows: ITK Degradation MSD (Meso Scale Discovery) Assay. Type of series: cell-based. The note with it: 4 or 6 hrs incubation. The method, boiled down:
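Jurkat or Molt4 cells at 1×10^6 cells/mL in RPMI/10% FBS treated 4 or 6 hr at 32° C with 7-point, 5-fold compound dilutions (0.5% DMSO). Lysate ITK quantified by MSD sandwich ECL immunoassay; % ITK remaining fitted by four-parameter curve, IC50 taken as DC50, plus Dmax.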

`Cc1ncsc1-c1ccc(CNC(=O)[C@@H]2C[C@@H](O)CN2C(=O)[C@@H](NC(=O)C2(F)CC2)C(C)(C)C)c(OCCCCCC(=O)N2CC([C@@H](c3ccccc3)n3cc(NC(=O)c4n[nH]c5c4C[C@@H]4C(F)(F)[C@]4(C)C5)cn3)C2)c1` [Compound 18, (4aS,5aR)-5,5-difluoro-N-(1-((S)-(1-(6-(2-(((2S,4R)-1-((S)-2-(1-fluorocyclopropane-1-carboxamido)-3,3-dimethylbutanoyl)-4-hydroxypyrrolidine-2-carboxamido)methyl)-5-(4-methylthiazol-5-yl)phenoxy)hexanoyl)azetidin-3-yl)(phenyl)methyl)-1H-pyrazol-4-yl)-5a-methyl-1,4,4a,5,5a,6-hexahydrocyclopropa[f]indazole-3-carboxamide] showed a concentration at 2 h in series [1] (timepoint 2 h) of 6.1 nM. In series [1] (timepoint 6 h), this molecule had a concentration at 6 h of 16.2 nM. In series [2], this molecule showed a Dmax of 95.1%. Besides, the half-maximal degradation concentration (DC50) in series [2] (best fit IC50 used as DC50) turned out to be 1.47 nM.

In general, Dmax refers to the greatest extent of degradation seen. The low end stands for shallow degradation, the high end for deep degradation. In general, DC50 refers to the midpoint of the concentration-degradation curve. The low end stands for degradation at low concentration, the high end for degradation only at high concentration.
